Test results taken from publication PMC10120463 (Journal of Enzyme Inhibition and Medicinal Chemistry, 2023).

Test: Haemolysis assay
Type: cell-based
Conditions: rabbit, rabbit red blood cell suspension

Structure (SMILES): C[C@@H]1[C@H](O)[C@@H](C)/C=C/C=C/C=C/C=C/C=C/C=C/C=C/[C@H](O[C@@H]2O[C@H](C)[C@@H](O)[C@H](N)[C@@H]2O)C[C@@H]2O[C@](O)(C[C@@H](O)C[C@@H](O)[C@H](O)CC[C@@H](O)C[C@@H](O)CC(=O)O[C@H]1C)C[C@H](O)[C@H]2C(=O)O [AmB, amphotericin B]
- hemolysis at 1 h, 32 µg/mL: 53.5%
